Results on 14 molecules are retold here after US20240424011A1, “COMBINATION THERAPY OF HYPOXIA-RESPONSIVE PRODRUG OF AN ANTICANCER DRUG AND RADIOTHERAPY, AND NOVEL HYPOXIA-RESPONSIVE PRODRUG” (UNIVERSITY OF TSUKUBA, priority 2021, published 2024).

Series [1] relates to Human pancreatic cancer cells (MIA Paca-2). Briefly: In vivo study 1: MIA Paca-2 implant, gemcitabine or its HAP 120 mg/kg with radiotherapy. The note with it: i.p. 120 mg/kg twice/week plus 2 Gy; for tumor growth inhibitory effect: vs radiation monotherapy, FIG. 12. The arrangement: species or system Balb/c nude mice. Here is the method: Human pancreatic cancer cells (MIA Paca-2) were subcutaneously implanted into Balb/c nude mice (6 or 7 mice per group), respectively, and gemcitabine or gemcitabine HAP (prepared according to the method described in Examples of JP 5676020 B2) was intraperitoneally administered (120 mg/kg, twice/week) to examine the synergistic effect of the combination therapy with radiotherapy (2 Gy, on the day after drug administration, twice/week).

Series [2] has as its system malignant tumor. Kind of series: therapy combined with radiotherapy (in vivo), summary in the disclosure. More on the design: species or system experimental animals. The text has this: Nevertheless, we investigated if there exists benefit or not in the therapy combined with radiotherapy using the PropHAP of gemcitabine. […] Even if the dose of the drug was increased, the effect stayed the same. […] Each PropHAP differs from gemcitabine in its chemical structure of the anticancer drug and the mechanism of action on tumors.

In series [3] the test system is Human pancreatic cancer cells (MIA Paca-2). Kind of series: In vivo study 2: MIA Paca-2 implant, gemcitabine or its HAP 10 mg/kg with radiotherapy. More on the design: species or system Balb/c nude mice. The note with it: i.p. 10 mg/kg twice/week plus 1 Gy, vs radiation monotherapy and gemcitabine plus radiation. The method, then:
Human pancreatic cancer cells (MIA Paca-2) were subcutaneously implanted to Balb/c nude mice (6 mice per group), and gemcitabine or gemcitabine HAP was intraperitoneally administered (10 mg/kg, twice/week) to examine the synergistic effect of the combination therapy with radiotherapy (1 Gy, on the day after drug administration, twice/week).

Series [4] relates to Human cholangiocarcinoma cells (HuCCT1). Briefly: In vivo study 3: HuCCT1 implant, gemcitabine or its HAP 30 mg/kg with radiotherapy. More on the design: species or system Balb/c nude mice. The note with it: i.p. 30 mg/kg twice/week plus 2 Gy; for tumor growth inhibitory effect: vs radiation monotherapy, FIG. 15. Here is the method:
Human cholangiocarcinoma cells (HuCCT1) were subcutaneously implanted into Balb/c nude mice (5 mice per group), respectively, and gemcitabine or gemcitabine HAP was intraperitoneally administered (30 mg/kg, twice/week), respectively to examine the synergistic effect of the combination therapy with radiotherapy (2 Gy, on the day after drug administration, twice/week).

Series [5] concerns Human cancer cells (MIA Paca-2). Kind of series: In vivo study 2 (part 2): MIA Paca-2 implant, comparison with 2-nitroimidazole, with irradiation. The arrangement: species or system Balb/c nude mice. The note with it: i.p. 10 mg/kg twice/week plus 1 Gy; vs radiation alone, 2-nitroimidazole, and gemcitabine plus 2-nitroimidazole, FIG. 14. The method, then: Human cancer cells (MIA Paca-2) were subcutaneously implanted into Balb/c nude mice (7 mice per group), respectively, and 2-nitroimidazole (10 mg/kg, twice/week), 2-nitroimidazole and gemcitabine (10 mg/kg respectively, twice/week), and gemcitabine HAP (10 mg/kg, twice/week) were intraperitoneally administered to examine the synergistic effect of the combination therapy with irradiation (1 Gy, on the day after drug administration, twice/week).

In series [6] the test system is PARP. Kind of series: detection of poly ADP ribosylated (PARylated) proteins by Western blotting. The note with it: hypoxic environment, FIG. 2. In kind it is cell-based, Human. The text has this: To determine whether the targeted PARP activity was inhibited under a hypoxic environment, proteins were recovered from the cells and poly ADP ribosylated (PARylated) proteins were detected by Western blotting.
For orientation: In western blotting, separated proteins are transferred to a membrane and probed.

Series [7] has as its system MDA-MB-231 cells. Briefly: MDA-MB-231 subcutaneous implant in mice, drug combined with radiotherapy. It counts as in vivo, Balb/c nude mice. The note with it: oral 50/100 mg/kg plus 0.5 Gy; for tumor growth inhibitory effect: compared with radiation monotherapy, FIG. 3. The method, then:
Balb/c nude mice (6 or 7 mice per group) were each subcutaneously implanted with MDA-MB-231 cells, and administered with niraparib or niraparib HAP to analyze the synergistic effect with radiotherapy.
Irradiation: 1 hour of drug administration followed by irradiation at 0.5 Gy

The test system of series [8] is Human breast cancer cells (MDA-MB-231). Briefly: cell viability of MDA-MB-231 at normal and low oxygen concentration, 2 days. In kind it is cell-based. The note with it: MDA-MB-231, normal vs low oxygen concentration (0.2%), FIG. 1.
The subject of series [9] is Human malignant melanoma (A375) cells. Kind of series: cell viability of A375 at normal and low oxygen concentration, 2 days. It counts as cell-based. The note with it: A375, normal vs lower (0.2%) oxygen, FIG. 5, 6, 8.
For series [10], the system named is Human breast cancer cells (MDA-MB-231). Kind of series: cell viability of MDA-MB-231 at normal and low oxygen concentration, 4 days. It counts as cell-based. The note with it: MDA-MB-231, normal vs lower (0.2%) oxygen, FIG. 7.
Series [11] has as its system Human breast cancer cells (MCF-7). Briefly: cell viability of MCF-7 at normal and low oxygen concentration, 2 days. It counts as cell-based. The note with it: MCF-7, normal vs lower (0.2%) oxygen, FIG. 9, 11. The text has this: The results are illustrated in FIG. 11.
In series [12] the test system is Human pancreatic cancer cells (MIA Paca-2). Briefly: MIA Paca-2 subcutaneous implant in mice, palbociclib or its HAP with radiotherapy. It counts as in vivo, Balb/c nude mice. The note with it: oral 100 mg/kg twice/week plus 2 Gy; vs radiation alone and vs palbociclib plus radiation, FIG. 10. The method, then: Human pancreatic cancer cells (MIA Paca-2) were subcutaneously implanted into Balb/c nude mice (6 mice per group), and palbociclib or palbociclib HAP was orally administered (100 mg/kg, twice/week) to examine the synergistic effect with radiotherapy (2 Gy on the day after drug administration, twice/week).

The subject of series [13] is human breast cancer cells (MCF7). Briefly: MCF7 subcutaneous implant in mice, ribociclib or its HAP with radiotherapy. In kind it is in vivo, Balb/c nude mice. The note with it: oral 75 mg/kg twice/week plus 1 Gy; vs radiation alone or ribociclib plus radiation, FIG. 11. Here is the method:
A 17β-estradiol sustained-release pellet (manufactured by Innovative Research of America) and human breast cancer cells (MCF7) were subcutaneously implanted to Balb/c nude mice (6 mice per group), and ribociclib or ribociclib HAP was orally administered (75 mg/kg, twice/week) to examine the synergistic effect with radiotherapy (1 Gy, on the day after drug administration, twice/week). The results are illustrated in a lower panel of FIG. 11.

For series [14] the test system is unchanged. Briefly: MCF7 subcutaneous implant in mice, doxorubicin or its HAP with radiotherapy. In kind it is in vivo, Balb/c nude mice. The note with it: i.p. 4 or 16 mg/kg plus 0.5 Gy. The method, then:
Balb/c nude mice (6 mice or more per group) were subcutaneously implanted with […] sustained-release pellets (produced by Innovative Research of America) and human breast cancer cells (MCF7), and intraperitoneally administered with doxorubicin (4 mg/kg. Day 0 and 2) or doxorubicin HAP 4 mg/kg, or 16 mg/kg, Day 0, 2, 7 and 9) to examine the synergistic effect with radiotherapy (0.5 Gy, Day 1, 3, 8 and 10). The results are shown in a lower panel of FIG. 16.

In series [15] the test system is hypoxic cells. The note with it: compared to typical radiotherapy alone; cited from earlier work.
Setting [16] is: vs gemcitabine-administered group.
Where [17] appears, read: with radiotherapy, radiation dose at which the parent compound causes side effects such as weight loss.
Setting [18] is: compared with niraparib-administered group.

On to `O=C(CCn1ccnc1[N+](=O)[O-])Nc1ccn([C@@H]2O[C@H](CO)C(O)C2(F)F)c(=O)n1` (stereo in doubt) [gemcitabine HAP], for which the body weight result in series [1] (setting [16]) is on record as “no decrease in body weight”; in [4] (setting [16]) it was “did not show a decrease in body weight”. In addition, in [1] (setting [16]), the survival rate entry is given as “improved survival rate”. Besides, the “tumor growth inhibitory effect” value in series [1] is “tumor growth inhibitory effect was enhanced”; in series [3] (FIG. 13), “effect was higher than that of gemcitabine”; in [3] (FIG. 13, listed as gemcitabine-HAP) it was “tumor growth inhibitory effect was enhanced”; in series [4], “tumor growth inhibitory effect was enhanced”; in series [5], “tumor growth inhibitory effect was enhanced”. Besides, in series [2] (radiation and drug dose at which the parent shows no side effect, vs radiation alone, parent alone, parent plus radiotherapy), the anticancer effects result is “significantly superior anticancer effects”. In addition, the therapeutic effect result in series [2] (setting [17]) was “almost equivalent to that of the parent compound”. For the same molecule, the weight loss entry in series [2] (setting [17]) was “not resulting in a significant weight loss”.
As to `NC(=O)c1cccc2cn(-c3ccc(C4CCCN(C(=O)CCn5ccnc5[N+](=O)[O-])C4)cc3)nc12` (centres unmarked) [Compound 3], the “PARP activity (PARylated proteins)” value in series [6] is listed as “PARP activity is specifically inhibited under the low oxygen environment”. Moreover, in series [7] (setting [18]), the body weight result is “no decrease in body weight” and the survival rate result is “improved survival rate”. In addition, the “tumor growth inhibitory effect” value in [7] is on record as “tumor growth inhibitory effect is enhanced”. The “cytotoxicity (cell viability)” value in series [8] is reported as “cytotoxicity is recovered at the low oxygen concentration”.
As for `CC(C)(C)c1nc(-c2cccc(NS(=O)(=O)c3c(F)cccc3F)c2F)c(-c2ccnc(NC(=O)CCn3ccnc3[N+](=O)[O-])n2)s1` [Compound 9], in series [9], the “cytotoxicity (cell viability)” value is “cytotoxicity is recovered at the low oxygen concentration”.
The same measure, in the same setting: the value for `CCCS(=O)(=O)Nc1ccc(F)c(C(=O)c2cn(C(=O)CCn3ccnc3[N+](=O)[O-])c3ncc(-c4ccc(Cl)cc4)cc23)c1F` [Compound 11] was “cytotoxicity is recovered at the low oxygen concentration”.
On to `O=C(CCn1ccnc1[N+](=O)[O-])Nc1ccccc1NC(=O)c1ccc(CNC(=O)OCc2cccnc2)cc1` [Compound 13], for which the “cytotoxicity (cell viability)” value in [10] was “cytotoxicity is recovered at the low oxygen concentration”.
`O=C(c1ccc(F)c(F)c1Nc1ccc(I)cc1F)N1CC(O)([C@@H]2CCCCN2C(=O)CCn2ccnc2[N+](=O)[O-])C1` [Compound 15]: in series [9], the “cytotoxicity (cell viability)” value is “cytotoxicity is recovered at the low oxygen concentration”.
Consider `CC(=O)c1c(C)c2cnc(Nc3ccc(N4CCN(C(=O)CCn5ccnc5[N+](=O)[O-])CC4)cn3)nc2n(C2CCCC2)c1=O` [Compound 17], for which the “cytotoxicity (cell viability)” value in series [11] is on record as “cytotoxicity is recovered at the low oxygen concentration”. The “tumor growth inhibitory effect” value in series [12] was “tumor growth inhibitory effect was enhanced when radiation was used in combination”.
With `CN(C)C(=O)c1cc2cnc(Nc3ccc(N4CCN(C(=O)CCn5ccnc5[N+](=O)[O-])CC4)cn3)nc2n1C1CCCC1` [Compound 19], the “tumor growth inhibitory effect” value in series [13] is given as “tumor growth inhibitory effect was enhanced when radiation was used in combination”. Further, in series [11], the “cytotoxicity (cell viability)” value was “cytotoxicity is recovered at the low oxygen concentration”.
Take `COc1cccc2c1C(=O)c1c(O)c3c(c(O)c1C2=O)CC(O)(C(=O)CO)CC3OC1CC(NC(=O)CCn2ccnc2[N+](=O)[O-])C(O)C(C)O1` (centres unmarked) [doxorubicin HAP]: in [14] (vs doxorubicin-administered group), the weight loss entry is reported as “did not show the weight loss”. In addition, the “tumor growth inhibitory effect” value in [14] (vs radiotherapy alone and doxorubicin plus radiation, FIG. 16) is “tumor growth inhibitory effect was enhanced when radiation was used in combination”.
With `O=C(Cn1ccnc1[N+](=O)[O-])NCCO` [etanidazole], the survival rate result in series [15] was “no significant improvement statistically in survival rate”.
As for `Nc1ccn([C@@H]2O[C@H](CO)[C@@H](O)C2(F)F)c(=O)n1` [gemcitabine, reference compound], the “tumor growth inhibitory effect” value in series [1] and in [4] was “tumor growth inhibitory effect was enhanced” throughout.
As to `O=[N+]([O-])c1cncn1CCN1CCOCC1` [nimorazole], the survival rate result in series [15] is “no significant improvement statistically in survival rate”.
As for `NC(=O)c1cccc2cn(-c3ccc([C@@H]4CCCNC4)cc3)nc12` [niraparib, reference compound], in series [7], the “tumor growth inhibitory effect” value is “tumor growth inhibitory effect is enhanced”.
Take `O=[N+]([O-])c1nccn1CC(O)CN1CCCCC1` (centres unmarked) [pimonidazole]: the survival rate entry in series [15] is listed as “no significant improvement statistically in survival rate”.
